Consider eleven molecules from ChEMBL document CHEMBL1201862, “PubChem BioAssay data set” (2004).

Structures are written as SMILES.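 Test compounds were applied to cells in 96-well plates for 48 hours at 5 doses. GI50 marks 50% less growth.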 Activity calls are given as the source filed them. Rule as the data show it: active = GI50 up to about 1.1 µM and inactive = higher. Peptide text beside a SMILES is read from it. * marks the point of attachment. Boc = CC(C)(C)OC(=O)*

Some test systems named below: MDA-MB-231; SW-620; BT-549; HCT-116; HCC 2998; SK-MEL-28; RPMI-8226; UACC-62; HL-60; SF-268; SF-295; CAKI-1; MDA-N; Malme-3M; DU-145; SK-MEL-5; NCI-H23; HOP-62; RXF 393; SR.
Holding throughout (assay): NCI tumour cell line growth inhibition, 48 h

For `CC(=O)Nc1c(C)cc2c(nc3n2CCC3O)c1[N+](=O)[O-]` (configuration not stated), the GI50 with MDA-MB-231, with SW-620, in the test with BT-549, in the test with HCT-116, in the test on HCC 2998 and in the test on SK-MEL-28 was > 100 µM (inactive) each time. Besides, the GI50 with RPMI-8226, with UACC-62, in the test with HL-60, in the test with SF-268, with SF-295 and in the test on CAKI-1 was > 100 µM (inactive) in each case. Also, the GI50 with MDA-N, with Malme-3M, with DU-145, in the test with SK-MEL-5 and in the test with NCI-H23 was > 100 µM (inactive) in each case.

Consider `CO/C(N)=C(C#N)/N=C/c1ccco1`, for which the GI50 in the test on MDA-MB-231, in the test with SW-620, in the test on BT-549, in the test on HCT-116, with HCC 2998 and with SK-MEL-28 was > 100 µM (inactive) throughout. In addition, the GI50 in the test with RPMI-8226, in the test with UACC-62, with HL-60, in the test with SF-268, in the test on HOP-62 and in the test on SF-295 was > 100 µM (inactive) each time. Also, the GI50 with CAKI-1, in the test with RXF 393, in the test on MDA-N, with Malme-3M, in the test on DU-145 and in the test with SK-MEL-5 was > 100 µM (inactive) throughout. Further, the GI50 in the test with NCI-H23 is > 100 µM (inactive).

For `CCOCC(NC(=O)C(CC(C)C)NC(=O)OC(C)(C)C)C(N)=O` (stereo not drawn) (Boc-Leu-Ser(Et)-NH2; configuration not given here), the GI50 with MDA-MB-231 is > 100 µM (inactive); with SW-620, 1.59 µM (inactive); with BT-549 it was > 100 µM (inactive); in the test with HCT-116, > 100 µM (inactive); in the test on SK-MEL-28 it was 1.31 µM (inactive); in the test on UACC-62, > 100 µM (inactive). The GI50 in the test with HL-60, with SF-268, in the test on HOP-62, with SF-295, in the test on CAKI-1 and with RXF 393 was > 100 µM (inactive) throughout. In addition, the GI50 in the test on MDA-N, with Malme-3M, in the test on DU-145, with SK-MEL-5 and with NCI-H23 was > 100 µM (inactive) in each case.

As to `CNC(=O)OC1/C(C)=C\C(C)C(O)C(OC)CC(C)CC2=C(OC)C(=O)C=C(C2=O)N(C)C(=O)/C(C)=C/C=C\C1OC` (configuration not stated), the GI50 with MDA-MB-231 was 2.05 µM (inactive); in the test on SW-620, 0.35 µM (active); in the test on BT-549 it was 5 µM (inactive); with HCT-116 it was 8.05 µM (inactive); in the test on HCC 2998 it was 4.39 µM (inactive); with SK-MEL-28, 2.88 µM (inactive). Also, the GI50 was 1.67 µM (inactive) with RPMI-8226; 3.84 µM (inactive) with UACC-62; 9.73 µM (inactive) in the test on SF-268; 14.4 µM (inactive) in the test on HOP-62; 24.4 µM (inactive) in the test on SF-295; 7.4 µM (inactive) in the test on CAKI-1. The GI50 in the test on RXF 393 was 2.25 µM (inactive); in the test with MDA-N, 1.33 µM (inactive); in the test on Malme-3M it was 5.69 µM (inactive); with DU-145, 9.64 µM (inactive); with SK-MEL-5, 7.64 µM (inactive); in the test with NCI-H23, 4.86 µM (inactive).

Regarding `COc1ccc(OCc2nc3cc(C(F)(F)F)ccc3nc2-c2ccccc2)cc1`, the GI50 in the test on MDA-MB-231 is 27.4 µM (inactive); with SW-620 it was > 100 µM (inactive); in the test with BT-549 it was > 100 µM (inactive); with HCT-116, > 100 µM (inactive); in the test with HCC 2998, > 100 µM (inactive); in the test with SK-MEL-28, > 100 µM (inactive). In addition, the GI50 with RPMI-8226, in the test on UACC-62, in the test with HL-60, in the test on SF-268, in the test on HOP-62 and in the test on SF-295 was > 100 µM (inactive) each time. The GI50 with CAKI-1, in the test on RXF 393, in the test on MDA-N, in the test with Malme-3M, in the test on DU-145 and with SK-MEL-5 was > 100 µM (inactive) each time. In addition, the GI50 in the test with NCI-H23 is > 100 µM (inactive).

Turning to `Cc1oc2c(c1C)S(=O)(=O)C(C#N)C(c1ccccc1)N2` (configuration not stated), the GI50 in the test with MDA-MB-231 is > 100 µM (inactive); in the test with SW-620, > 100 µM (inactive); in the test on BT-549, 45.4 µM (inactive); with HCT-116, 50 µM (inactive); with HCC 2998, 53.8 µM (inactive); in the test with SK-MEL-28, > 100 µM (inactive). Also, the GI50 in the test on UACC-62 was 41.4 µM (inactive); with SF-268, 56 µM (inactive); in the test on HOP-62 it was > 100 µM (inactive); in the test on SF-295, 78.9 µM (inactive); in the test on CAKI-1, 36.1 µM (inactive); with MDA-N, 29 µM (inactive). For the same molecule, the GI50 with Malme-3M is 37.7 µM (inactive); in the test with DU-145, 80.7 µM (inactive); in the test with SK-MEL-5 it was 32.4 µM (inactive); with NCI-H23 it was 69.5 µM (inactive).

Consider `Cn1c2ccccc2c(=O)c2cccc(C(=O)NC(CCCNC(=N)N)C(=O)O)c21` (configuration not stated), for which the GI50 in the test with MDA-MB-231, in the test on SW-620, with BT-549, in the test on HCT-116, in the test on HCC 2998 and in the test on SK-MEL-28 was > 100 µM (inactive) each time. Moreover, the GI50 in the test with RPMI-8226, in the test on UACC-62, in the test with SF-268, in the test with HOP-62, with SF-295 and with MDA-N was > 100 µM (inactive) in each case. Besides, the GI50 in the test on Malme-3M, in the test with DU-145, in the test with SK-MEL-5 and with NCI-H23 was > 100 µM (inactive) each time.

Turning to `C=C1CC[C@@H](C)[C@](C)(CCc2ccoc2)C/C=C\C=C/1C(=O)O`, the GI50 in the test with MDA-MB-231 was 59.2 µM (inactive); in the test with SW-620, 32.8 µM (inactive); with SR, 23 µM (inactive); in the test with BT-549, 19.5 µM (inactive); in the test with HCT-116, 21.8 µM (inactive); with SK-MEL-28 it was 21.9 µM (inactive). The GI50 in the test with UACC-62 was 31.2 µM (inactive); with HL-60, 16.5 µM (inactive); in the test on HOP-62, 44.8 µM (inactive); with SF-295 it was 38.8 µM (inactive); in the test with CAKI-1, 31.6 µM (inactive); with RXF 393, 29.9 µM (inactive). For the same molecule, the GI50 was 22 µM (inactive) in the test with MDA-N, 33.4 µM (inactive) in the test with Malme-3M, 39.6 µM (inactive) with SK-MEL-5 and 50.4 µM (inactive) with NCI-H23.

On to `O=C1/C(=C/c2ccc(O)c([N+](=O)[O-])c2)CCC/C1=C\c1ccc(O)c([N+](=O)[O-])c1`, for which the GI50 with MDA-MB-231 is 21.9 µM (inactive); in the test on SW-620 it was 10.2 µM (inactive); with BT-549, 13.3 µM (inactive); in the test with HCT-116 it was 8.45 µM (inactive); in the test on HCC 2998, 8.69 µM (inactive); in the test with SK-MEL-28, 7.5 µM (inactive). The GI50 is 13.1 µM (inactive) with RPMI-8226; 7.23 µM (inactive) with UACC-62; 14.6 µM (inactive) with HL-60; 4.28 µM (inactive) in the test on SF-268; 12.5 µM (inactive) with HOP-62; 18.4 µM (inactive) in the test on SF-295. In addition, the GI50 in the test on CAKI-1 is 11.5 µM (inactive); with RXF 393 it was 10 µM (inactive); with MDA-N, 7.57 µM (inactive); with Malme-3M, 8.63 µM (inactive); with DU-145 it was 9.77 µM (inactive); with SK-MEL-5, 9.27 µM (inactive). Further, in the test with NCI-H23, the GI50 was 12.3 µM (inactive).

Take `C[C@@]1(Br)C[C@@](C)(Cl)[C@@H](Br)CC1/C=C/Cl` (some centres not stated): the GI50 with MDA-MB-231 is 20.1 µM (inactive); with SW-620, 26.9 µM (inactive); in the test with SR it was 14.1 µM (inactive); with BT-549 it was 19.1 µM (inactive); in the test on HCT-116, 11 µM (inactive); in the test with HCC 2998, 31.6 µM (inactive). For the same molecule, the GI50 was 21.9 µM (inactive) with SK-MEL-28; 16 µM (inactive) with RPMI-8226; > 10 µM (inactive) in the test on UACC-62; 11.1 µM (inactive) in the test on SF-268; 17 µM (inactive) with HOP-62; 14.4 µM (inactive) in the test on SF-295. The GI50 in the test with MDA-N is 15.8 µM (inactive); in the test on Malme-3M, < 0.01 µM (active); in the test on SK-MEL-5, 13.6 µM (inactive); in the test on NCI-H23, 28.6 µM (inactive).

As for `COc1ccc2c(c1)c(=O)c1c(NCCCN(C)C)ccc3ncn2c31`, the GI50 in the test with SW-620 is 1.01 µM (active); with SR, 2.19 µM (inactive); in the test on BT-549, 17.6 µM (inactive); in the test with HCT-116, 0.188 µM (active); with HCC 2998, 3.05 µM (inactive); in the test with SK-MEL-28, 13.2 µM (inactive). In addition, the GI50 was 1.29 µM (inactive) in the test with RPMI-8226; 11.4 µM (inactive) with UACC-62; 4.42 µM (inactive) in the test on HL-60; 1.31 µM (inactive) with SF-268; 0.783 µM (active) in the test with HOP-62; 1.47 µM (inactive) in the test with SF-295. Moreover, the GI50 in the test on CAKI-1 was 5.68 µM (inactive); with RXF 393 it was 0.366 µM (active); with MDA-N, 5.37 µM (inactive); with Malme-3M, 11.6 µM (inactive); in the test with DU-145, 4.66 µM (inactive); in the test with SK-MEL-5 it was 7.67 µM (inactive). For the same molecule, the GI50 in the test on NCI-H23 is 5.87 µM (inactive).
